Several values for one entry are separate records, joined by “and”; a condition that tells them apart may be missing. Equal values may be shown once. Read-outs that look alike come from different tables or passages of the source.
Columns and labels:
Giardia lamblia = assay: Patients with malabsorption syndrome (MAS) caused by Giardia lamblia; assay type: in vivo, human
Text: Volunteer # 1: Type II MAS with positive isolation of Giardia lamblia in duodenal washings and confirmation of the disease by histopathology. […] One month later, patient 1 presented symptoms and signs of recurrence of the disease, with positive isolation of parasites in feces.
Volunteer # 2: with diffuse abdominal pain, loss of body weight and steatorrhea.

[1] = tested on: P815 H-^d mastocytoma cells; assay: Mastocytoma transplanted BALB/c mice, peritoneal cell count; assay type: in vivo; conditions: for Cellular count ± STD / I/C: Percentual increment over control growth: Group A
Procedure: Two groups of BALB/c mice were injected with 15X10⁶ P815 H-^d mastocytoma cells by intraperitoneal route. […] The other group (B) was treated with saline.
On the third day assay and for the next three days, 5 mice per group were sacrificed. The peritoneal cavity was washed with phosphate buffered saline (PBS) and the ascitic fluid aspirated with syringe and centrifuged for 10 minutes at 500 Xg. The supernatant was then discarded and the cells diluted in 1% Trypan blue were counted on a Neubauer chamber. The cell count for each group can be observed in Table 3.

[2] = tested on: Foot-and-mouth disease virus (FMDV); assay type: in vivo, Swiss mice
[3] = tested on: patient with an history of ulcerative colitis; assay: Intravenous treatment of a patient with ulcerative colitis; assay type: in vivo, human
Cryptococcus neoformans = assay: Cryptococcoses in experimentally infected mice; assay type: in vivo, Swiss mice; conditions: 0.1 ml 0.2% lidocaine i.p. twice a day
Procedure: Animals: 5-7 month old female Swiss mice were used. Experimental schedule: mice received by intraperitoneal route 0.5 ml of a suspension of 10⁷ Cryptococcus neoformans grown in Sabureaud medium.
Two animals of each group (experimental and control groups) were sacrificed at 2, 5 and 10 days post-infection and samples of liver, pancreas, brain, spleen, lung, kidney and bowel were obtained for microscopic examination.

herpes zoster = assay: Herpes zoster infection in patients; assay type: in vivo, human
Text: PATIENT A: who presented a grade II vesical transitional carcinoma that was endoscopically resected. 60 days after resection they presented their first herpetic episode in chest, of 10 days of evolution. 175 days later, a second episode was presented, beginning with hyper and parastesy in the affected area and sudden appearance of vesicles.
PATIENT B: without any apparent disease. 20 and 12 months before they presented two episodes of herpes zoster in the right submammary area, of high intensity, with exquisite pain that made impossible contact with clothes, each episode lasting 3 weeks. At the present time, the patient presented their third episode, preceded by fever (during 48 hours), with crusted vesicles, some of them impetiginized.
PATIENT C: with a breast cancer, under chemo and hormone therapy. After each chemotherapy schedule received, they developed an herpetic episode in the left leg.

HIV (RETROVIRUS) = assay: Evolution of HIV infected patients (CD4+ counts); assay type: in vivo, human; conditions: for number of CD4+ cells in blood: individual patients 1-4
Text: One group experiment consisted in 6 volunteer patients males and females aged between 22 and 35. […] Patient 5 and patient 6, just received saline by same route and frequency as treated patients.
The evolution of the disease in the analyzed patients was done by counting the number of CD4+ cells/mm³ blood and the CD4/CD8 ratio. Blood samples were collected every 15 days.
Treatment of patients started after the fourth sample extraction.

[4] = tested on: patients with acute hemorraghic diarrhea; assay: Intravenous treatment of patients with acute hemorrhagic diarrhea; assay type: in vivo, human
Procedure: Rectoscopies were performed in all patients immediately before treatment, 2 and 7 days later. Two (2) of the patients accepted to be biopsed at the moment of the first and second rectoscopies.

[5] = tested on: P815 H-2^d mastocytoma cells; assay: In vitro cell growth, P815 seeded petri dishes (Trypan blue count); assay type: cell-based
Procedure: EL4 h-2^b murine T-Lymphoma (2x10⁶ cells) and P815 H-2^d mastocytoma cells (2x10⁶ cells) (kindly provided by Prof. Gideon Berke at the Weizmann Institute of Sciences, Rehovot, Israel) suspended in 2 ml RPMI-HEPES supplemented with […] and 10% fetal calf serum (FCS) were seeded in every one of 10 petri dishes for each of five groups for the EL4 cells and two groups for the P815 cells. […] Group E dishes were co-cultivated with 0.1 ml RPMI-HEPES alone.
Petri dishes were incubated for 72 hours at 37°C in 5% CO₂ atmosphere. The cells harvested from the petri dishes were then centrifuged, diluted with 1% Trypan blue and counted on a Neubauer chamber.

[6] = Volunteer # 2, day 7 post-treatment

SMILES: CCN(CC)CC(=O)Nc1c(C)cccc1C [lidocaine]
- D-xylose and Van der Kamer tests (Giardia lamblia; Volunteer # 1, five days later): normal values
- Enteric histopathological examination (Giardia lamblia; Volunteer # 1, five days later (type II MAS before)): type I MAS
- isolation of parasites in feces (Giardia lamblia; Volunteer # 1, i.v. twice a day 2 days, five days later): negative results
- All tests performed (Giardia lamblia; Volunteer # 1, thirty days later): normalization of enteric function with negative isolation of parasites
- D-xylose and Van der Kamer tests (Giardia lamblia; [6]): normal
- Symptoms (Giardia lamblia; [6]): asymptomatic
- microscopic examination of enteric mucosa (Giardia lamblia; Volunteer # 2, day 7 post-treatment (type II MAS before)): type I MAS
- Overall status (Giardia lamblia; Volunteer # 2, day 28 post-treatment): asymptomatic, with gain of weight, normal tests, negative isolation of parasites and a normalization of the microscopic aspect of the enteric mucosa
- isolation of parasites (Giardia lamblia; Volunteer # 2, i.v. twice a day 2 days (5 ml, 2%), day 7 post-treatment): negative results
- Cellular count ± STD ([1]; 0.1 ml 0.5% lidocaine 24 h after transplant, 48 Hs p-t, control 5.30E+07): 2.85E+07 ± 0.78 millions of cells
- I/C: Percentual increment over control growth ([1]; 48 Hs p-t): -46.18%
- I/C: Percentual increment over control growth ([1]; 72 Hs p-t): -37.11%
- Cellular count ± STD ([1]; 72 Hs p-t, control 1.59E+08): 1.00E+08 ± 3.38 millions of cells
- I/C: Percentual increment over control growth ([1]; 96 Hs p-t): 27.15%
- reduction in the growth rate ([1]; first 24 hours of lidocaine treatment, decreasing 10% per day afterwards): ~50%
- PRESENCE OF PMNs ([2]; 0.1 ml 0.1% i.p., 8am and 8pm day 1 (group E)): 80-90%
- PRESENCE OF PMNs ([2]; 0.1 ml 0.1% i.p., 8am and 8pm on day 1 and day 2 (group F)): 10%
- PRESENCE OF PMNs ([2]; 0.1 ml 0.2% i.p., 8am and 8pm day 1 (group C)): 30-40%
- PRESENCE OF PMNs ([2]; 0.1 ml 0.2% i.p., 8am day 1 only (group B)): 60-70%
- PRESENCE OF PMNs ([2]; 0.1 ml 0.2% i.p., 8am, 8pm day 1 and 8am day 2 (group D)): 30%
- PRESENCE OF PMNs ([2]; 0.1 ml 0.4% i.p., 8am day 1 only (group A)): 10%
- PRESENCE OF PMNs ([2]; 0.1 ml 0.8% lidocaine i.m. twice a day, 24 hours before FMDV infection): 10%
- PRESENCE OF PMNs ([2]; 0.1 ml lidocaine 0.2% i.m. twice a day 2 days (group C)): 80-90%
- PRESENCE OF PMNs ([2]; 0.1 ml lidocaine 0.4% i.m. twice a day 2 days (group B)): 60-70%
- PRESENCE OF PMNs ([2]; 0.1 ml lidocaine 0.8% i.m. twice a day 2 days (group A)): 30-50%
- Microscopic examination of the pancreas ([2]; groups A (lidocaine endovenous 24 h after FMDV) and C (simultaneous), 48 hours post-infection): minimal inflammatory damage with absence of necrosis
- Microscopic examination of the pancreas ([2]; groups A and C, 72 hours post-infection): no pancreatic damage could be found
- PRESENCE OF PMNs ([2]; lidocaine concentration 0.1%, i.m. twice a day 2 days): 50-60%
- PRESENCE OF PMNs ([2]; lidocaine concentration 0.2%, i.m. twice a day 2 days): 20-30%
- PRESENCE OF PMNs ([2]; lidocaine concentration 0.3%, i.m. twice a day 2 days): 10-20%
- PRESENCE OF PMNs ([2]; lidocaine concentration 0.4%, i.m. twice a day 2 days): 10-20%
- PRESENCE OF PMNs ([2]; lidocaine concentration 0.5%, i.m. twice a day 2 days): 10-20%
- PRESENCE OF PMNs ([2]; oral route, 0.1 ml of 2% solution twice a day 2 days): 50-100%
- PRESENCE OF PMNs ([2]; oral route, 0.2 ml of 2% solution twice a day 2 days): 30-60%
- PRESENCE OF PMNs ([2]; oral route, 0.3 ml of 2% solution twice a day 2 days): 30-60%
- PRESENCE OF PMNs ([2]; oral route, 0.4 ml of 2% solution twice a day 2 days): 50%
- PRESENCE OF PMNs ([2]; oral route, 0.5 ml. of 2% solution twice a day 2 days): 20-30%
- Diarrhea ([3]; 4 i.v. doses each 12 hours per week, 4 weeks (5 ml, 2% solution), during the treatment): diarrhea disappeared
- Colonoscopy ([3]; 5th week): congestive and edematous mucosa; no erosion could be observed
- histopathological diagnosis ([3]; biopsy, 5th week): quiescent ulcerative colitis
- Microscopic examination of organs (Cryptococcus neoformans; 48 hours post-infection): only a generalized vascular congestion
- Microscopic examination of organs (Cryptococcus neoformans; 5 days post-infection): discrete mononuclear cell infiltrate in liver parenchyma and swelling of pancreatic tissue, with absence of inflammatory cells
- Microscopic examination of organs (Cryptococcus neoformans; day 10 pi): scarce granulomas in hepatic parenchyma
- Evolution of herpetic lesions (herpes zoster; PATIENT C, breast cancer under chemo and hormone therapy): residual hyperesthesia persisted
- time to healing (crusts detached / all vesicles healed) (herpes zoster; individual patients (A, B)): ≤ 7 day post-treatment and 10 day post-treatment
- time to disappearance of pain (herpes zoster; individual patients (A, B), i.v. twice a day 2 days): ≤ 5 days and 5 days
- CD4 counting (HIV (RETROVIRUS); all the treated patients, controls decreased): increase or no decrease
- number of CD4+ cells in blood (HIV (RETROVIRUS); sample 1 (every 2 weeks), before treatment): 480 cells/mm³ and 294 cells/mm³ and 230 cells/mm³ and 500 cells/mm³
- number of CD4+ cells in blood (HIV (RETROVIRUS); sample 2, before treatment): 475 cells/mm³ and 294 cells/mm³ and 238 cells/mm³ and 496 cells/mm³
- number of CD4+ cells in blood (HIV (RETROVIRUS); sample 3, before treatment): 475 cells/mm³ and 280 cells/mm³ and 235 cells/mm³ and 496 cells/mm³
- number of CD4+ cells in blood (HIV (RETROVIRUS); sample 4, last before treatment): 480 cells/mm³ and 270 cells/mm³ and 234 cells/mm³ and 485 cells/mm³
- Symptomatology ([4]; 4 patients, 5 ml 2% solution i.v. twice a day for 2 days, after 48 hours of treatment): abolishment of symptomatology
- Microscopic examination of mucosa ([4]; second biopsy (2 patients)): Slight chronic inflammatory process with indemnity of epithelium
- Rectoscopy ([4]; second rectoscopy, 2 days after start of treatment): congestive and edematous mucosa, without hemorrhages and erosions
- Rectoscopy ([4]; third rectoscopy, 7 days later): normal mucosa
- Alive Cells ± STD ([5]; Group A, 0.1 ml 0.005% lidocaine, 72 hours, control 4.66E+06): 3.77E+06 ± 0.11 millions of cells
- Dead cells ([5]; Group A, 0.1 ml 0.005% lidocaine, control 2.33E+06): 1.96E+06
- inhibition at 0.005 % ([5]; Mus musculus, P815, 72 h, read-out: I/C: Percentual increment over control growth): 19.1%
